Here are results for five molecules from patent publication US6375979B2 (Somerset Pharmaceuticals, Inc., priority 1995, dated 2002).

Values joined by “and” are separate entries in the source; they are usually repeats but may differ in a detail not shown here. Equal values may be shown once. Read-outs that look alike come from different tables or passages of the source.

The target of test [1] is T1, dopamine re-uptake system (Rattus norvegicus, UniProt P23977).
T1 construct: (synaptosome preparation) was obtained form fresh rat neostriatal brain tissue; from tissue; host or cells: rat neostriatum, synaptosome preparation
Kind of test: Inhibition of dopamine re-uptake in rat neostriatal synaptosome preparation. It counts as biochemical. The method, then:
An in vitro nerve terminal preparation (synaptosome preparation) was prepared using fresh rat neostriatal tissue.
FIG. 19: Determination of IC50 Values for Inhibition of Dopamine Re-Uptake.
An in vitro nerve-terminal preparation (synaptosome preparation) was obtained form fresh rat neostriatal brain tissue. Transport by dopamine nerve-terminals was estimated by measuring the uptake of tritiated dopamine.

For test [2], the system named is cultured rat mesencephalic cells. Kind of test: Medium change (glutamate receptor dependent) model of cell death: [3H]-dopamine uptake. As to conditions: for neuron protection by measurement of dopamine uptake (FIG. 15): glutamate receptor dependent model.
Method: Preparations are then added to 10 ml Ecoscint (National Diagnostics) and counted in a scintillation spectrometer.
(§2) In these experiments, cells were plated and allowed to stabilize for several days.
Test [3] relates to cultured embryonic mesencephalic cells. The test can be described thus: Neuronal survival: [3H]dopamine uptake by cultured mesencephalic cells. It counts as cell-based, rat. An excerpt: The amount of uptake by the cultured brain cells corresponds to axonal growth.
The subject of another test is interleukin-2 production. Kind of test: Concanavalin A-induced interleukin-2 production by spleen cells of treated old rats. It counts as in vivo, rat. As to conditions: ip daily 60 days. The method, then: The present experiments utilized a rat model to examine the ability of R(−)DMS and S(+)DMS to restore immunological function. Rats were divided into the following experimental groups:
(§1) Rats were administered saline or test agent ip, daily for 60 days. They were then maintained for an additional “wash out” period of 10 days during which time no treatment was given. At the end of this time, animals were sacrificed and their spleens were removed. The spleen cells were then assayed for a variety of factors which are indicative of immune system function. Specifically, standard tests were employed to determine the following:
2) in vitro concanavalin A-induced production of interleukin-2;

The subject of the next test is γ-interferon production. Kind of test: γ-interferon production by concanavalin A-stimulated spleen cells of treated old rats. It counts as in vivo, rat. The conditions noted are these: old rats, ip daily 60 days; 1.0 mg/kg (for DMS enantiomers). The method, then: Rats were divided into the following experimental groups:
as §1
1) in vitro production of γ-interferon by concanavalin A-stimulated spleen cells;

Test [4] has as its target T2, MAO-A (Rattus norvegicus, UniProt P21396).
T2 sequence (P21396 1-526): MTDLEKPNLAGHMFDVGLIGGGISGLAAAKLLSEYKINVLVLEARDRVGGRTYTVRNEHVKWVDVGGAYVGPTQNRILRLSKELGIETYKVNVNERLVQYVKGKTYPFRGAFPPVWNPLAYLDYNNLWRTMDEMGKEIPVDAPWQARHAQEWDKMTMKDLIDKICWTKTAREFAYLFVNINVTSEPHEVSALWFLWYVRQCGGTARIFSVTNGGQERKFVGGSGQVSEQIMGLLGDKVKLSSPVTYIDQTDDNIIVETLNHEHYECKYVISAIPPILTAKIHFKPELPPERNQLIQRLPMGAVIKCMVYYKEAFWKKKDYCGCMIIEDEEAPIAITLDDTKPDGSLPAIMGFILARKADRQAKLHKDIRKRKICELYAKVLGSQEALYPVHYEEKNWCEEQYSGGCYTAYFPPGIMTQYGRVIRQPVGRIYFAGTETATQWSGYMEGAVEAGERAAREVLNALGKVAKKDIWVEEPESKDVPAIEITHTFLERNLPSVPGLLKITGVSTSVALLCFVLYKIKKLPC

The test system of test [5] is cultured rat mesencephalic cells exposed to NMDA. Kind of test: NMDA model of cell death: TH immunochemistry. The conditions noted are these: 50 μM, 100 μM NMDA exposure.
Method: Rat mesencephalic cell cultures were exposed to 100 μM NMDA and incubated as described above in connection with FIG. 16.
For test [6] the test system is unchanged. The test can be described thus: NMDA model of cell death: [3H]-dopamine uptake. The conditions noted are these: 50 μM, 100 μM NMDA exposure.
Test [7] deals with cultured rat mesencephalic cells. Kind of test: Medium change (glutamate receptor dependent) model of cell death: TH positive cells.
Method: as §2
Test [8] has as its system TH positive cells in cultured E-14 embryonic mesencephalic cells.
Test [9] addresses T3, MAO-A (Cavia porcellus, UniProt H0UVA2).
T3 sequence (H0UVA2 1-461): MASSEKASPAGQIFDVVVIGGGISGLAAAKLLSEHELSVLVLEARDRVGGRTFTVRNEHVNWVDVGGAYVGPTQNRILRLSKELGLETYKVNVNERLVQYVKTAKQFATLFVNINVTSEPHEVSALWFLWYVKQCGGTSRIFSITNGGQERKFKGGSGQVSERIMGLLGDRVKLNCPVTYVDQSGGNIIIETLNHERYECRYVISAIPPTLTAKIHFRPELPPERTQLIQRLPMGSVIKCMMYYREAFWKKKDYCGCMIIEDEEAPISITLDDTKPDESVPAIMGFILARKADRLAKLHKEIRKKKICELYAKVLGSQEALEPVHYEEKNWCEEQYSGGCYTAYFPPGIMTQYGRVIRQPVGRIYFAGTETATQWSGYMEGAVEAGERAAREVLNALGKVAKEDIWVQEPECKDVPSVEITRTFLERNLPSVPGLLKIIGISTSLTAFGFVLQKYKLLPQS
The test can be described thus: MAO-A inhibition in guinea pig hippocampal homogenates in vitro. It is filed as biochemical. The arrangement: by human platelets and/or guinea pig hippocampal homogenates; from tissue; host or cells: guinea pig hippocampus homogenate. An excerpt: Human platelet MAO is comprised exclusively of the type-B isoform of the enzyme. […] The present study also examined the two enantiomers of DMS for inhibitory activity with respect to the MAO-A and MAO-B in guinea pig hippocampal tissue. Guinea pig brain tissue is an excellent animal model for studying brain dopamine metabolism, the enzyme kinetics of the multiple forms of MAO and the inhibitory properties of novel agents that interact with these enzymes. The multiple forms of MAO in this animal species show similar kinetic properties to those found in human brain tissue. Finally, the test agents were administered to guinea pigs and the extent to which they might act as inhibitors of brain MAO in vivo was assessed.
In vitro: The test system utilized the in vitro conversion of specific substrates of MAO-A (^14C-serotonin) and MAO-B (^14C-phenylethylamine) by human platelets and/or guinea pig hippocampal homogenates. […] A percent inhibition was calculated from these values.

[10] abbreviates: 1.0 mg/kg (for DMS enantiomers).
[11] abbreviates: 50 μM, medium change model, listed as Deprenyl.

T1 sequence (P23977 whole entry): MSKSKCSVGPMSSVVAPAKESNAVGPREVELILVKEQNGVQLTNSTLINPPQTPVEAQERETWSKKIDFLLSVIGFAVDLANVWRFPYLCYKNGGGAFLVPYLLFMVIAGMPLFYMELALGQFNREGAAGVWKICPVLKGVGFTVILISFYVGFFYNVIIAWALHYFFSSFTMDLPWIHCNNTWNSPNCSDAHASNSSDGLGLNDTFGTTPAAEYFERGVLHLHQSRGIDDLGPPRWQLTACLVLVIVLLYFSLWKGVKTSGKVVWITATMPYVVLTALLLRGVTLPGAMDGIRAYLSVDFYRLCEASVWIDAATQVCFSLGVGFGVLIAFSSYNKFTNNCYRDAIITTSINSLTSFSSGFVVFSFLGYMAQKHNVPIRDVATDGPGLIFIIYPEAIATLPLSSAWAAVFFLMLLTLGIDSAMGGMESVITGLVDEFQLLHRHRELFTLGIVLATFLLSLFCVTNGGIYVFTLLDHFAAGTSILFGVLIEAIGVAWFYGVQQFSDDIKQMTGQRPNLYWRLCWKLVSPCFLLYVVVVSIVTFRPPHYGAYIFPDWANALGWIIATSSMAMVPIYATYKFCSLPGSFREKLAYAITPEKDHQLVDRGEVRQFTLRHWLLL

In the case of `NCCc1ccc(O)c(O)c1` [Dopamine, dopamine, reference compound], the “3H-Dopamine uptake, % Reduction x ± SEM” value in test [1] (1 μM) was 52.0 ± 4.9%; in test [1] (10 μM), 80.9 ± 0.4%.

As for `C#CCN(C)Cc1ccccc1` [Pargyline, pargyline, reference compound], the “neuron protection by measurement of dopamine uptake (FIG. 15)” value (“neuron protection by measurement” below) in test [2] (at the concentrations used (0.5, 5 and 50 μM)) is “did not appear to offer any protection”.

In general, inhibition refers to the relative decrease from the control value, in per cent. As usually defined, the IC50 is the concentration that gives 50% inhibition. Take `C#CCN(C)[C@H](C)Cc1ccccc1` [Selegiline, R-(−)-N-methyl-N-(prop-2-ynyl)-2-aminophenylpropane, reference compound]: the results for the “3H-Dopamine Uptake, % Cont” value in test [3] (0.5 μM), in test [3] (5 μM) and in test [3] (50 μM) were 120.6%, 137.5% and 275.5%, respectively. The “3H-Dopamine Uptake, Mean” value in test [3] (0.5 μM) is 14452 ± 212; in [3] (5 μM) it was 16468 ± 576; in test [3] (50 μM), 33018 ± 1317. The “3H-Dopamine uptake, % Reduction x ± SEM” value in [1] (1 μM) was 13.9 ± 4.7%; in test [1] (10 μM), 16.3 ± 3.8%; in [1] (100 μM), 7.0 ± 3.6%; in test [1] (100 μM (last row of each agent)), 59.8 ± 1.0%. The molecule further gave an IL-2 % control with interleukin-2 production (setting [10]) of 376%. In addition, the “IL-2 U/ml mean” value turned out to be 73.78 U/ml in the test on interleukin-2 production (setting [10]) and 109.6 U/ml in the test on interleukin-2 production ([…] (for R(−)DMS by group order)). This molecule also registered an IFN-γ % control in the test on γ-interferon production of 550%. For the same molecule, in the test on γ-interferon production, the “IFN-γ U/ml mean” value was 1934 U/ml. Besides, the inhibition was 9.75% against MAO-A [4] (0.3 µM), 32.5% against MAO-A [4] (1 μM), 65.5% against MAO-A [4] (3 µM) and 97.8% against MAO-A [4] (10 μM). In addition, the “TH Immunochemistry, % control, Mean” value in [5] was 234.3%; in test [7] (50 μM, medium change model) it was 130.6%. Also, the “TH Immunochemistry, cells/cm^2, Mean” value in test [5] was found to be 220.63 cells/cm^2; in test [7] (50 μM, medium change model), 344.17 cells/cm^2. Also, the “TH Immunochemistry, % control, individual cultures” value in test [5] (listed as Deprenyl) was 244.2% and 305.3% and 199.1% and 188.5%; in test [7] (setting [11]) it was 146.0% and 124.2% and 121.4%. In addition, the “TH Immunochemistry, cells/cm^2, individual cultures” value in test [5] (listed as Deprenyl) was 230.0 cells/cm^2 and 287.5 cells/cm^2 and 187.5 cells/cm^2 and 177.5 cells/cm^2; in [7] (setting [11]), 385.0 cells/cm^2 and 327.5 cells/cm^2 and 320.0 cells/cm^2. Moreover, the “Dopamine uptake, % control, Mean” value came out at 257.4% in test [6] and 170.1% in [2] (50 μM, medium change model). Moreover, the “Dopamine uptake, counts/min, Mean” value in test [6] is given as 17393.8 counts/min; in test [2] (50 μM, medium change model) it was 35714 counts/min. For the same molecule, the “Dopamine uptake, % control, individual cultures” value in [6] (listed as Deprenyl) was 228.1% and 273.5% and 251.0% and 259.8% and 274.9%; in test [2] (setting [11]) it was 181.2% and 162.6% and 175.3% and 161.3%. Moreover, the “Dopamine uptake, counts/min, individual cultures” value in [6] (listed as Deprenyl) is 15410 counts/min and 18479 counts/min and 16958 counts/min and 17550 counts/min and 18572 counts/min; in [2] (setting [11]) it was 38053 counts/min and 34130 counts/min and 36810 counts/min and 33863 counts/min. Besides, the “survival of dopaminergic neurons (FIGS. 11 and 12)” value in [7] (0.5, 5.0 or 50 μM, 4 days of daily medium changes, TH staining and dopamine uptake) is given as “promotes the survival of dopaminergic neurons”. In addition, the “neuron protection by measurement” value in [2] (50 μM) is reported as “neuron protection”. The “Survival of TH positive cells, % cont.” value in test [8] (0.5 μM) worked out at 185.81%; in test [8] (5 μM), 218.33%; in [8] (50 μM), 269.25%. For the same molecule, the “Survival of TH positive cells, Mean cells/cm^2” value in [8] (0.5 μM) worked out at 201.70 ± 25.01 cells/cm^2; in [8] (5 μM), 237.00 ± 12.59 cells/cm^2; in test [8] (50 μM), 292.28 ± 17.41 cells/cm^2. The IC50 against MAO-A [9] stood at 2500 nM. Also, the inhibition at 0.3 µM on MAO-A [9] (300 nM, guinea pig hippocampus, read-out: MAO-A % Inhibition x = SEM) came to 11.9 ± 2.4%. The inhibition at 1 µM on MAO-A [9] (1 μM, guinea pig hippocampus, read-out: MAO-A % Inhibition x = SEM) was determined as 22.1 ± 1.2%. Also, the inhibition at 3 µM on MAO-A [9] (3 μM, guinea pig hippocampus, read-out: MAO-A % Inhibition x = SEM) amounted to 53.5 ± 2.7%. In addition, the “reduction in potency compared to selegiline (value in parentheses)” value on MAO-A [9] (MAO-A IC50, guinea pig hippocampal cortex) stood at 1.

Turning to `C[C@]12N[C@H](Cc3ccccc31)c1ccccc12` [MK-801, reference compound], the “neuron protection by measurement” value in [2] (10 μM) is given as “protection was also obtained”.

With `C#CCN(C)CCCOc1ccc(Cl)cc1Cl` [clorgyline, reference compound], the “neuron protection by measurement” value in test [2] (50 μM) was “protected”.
